In patent US12053446B1, “Methods for the prevention and treatment of hearing loss using Oseltamivir” (Ting Therapeutics LLC, priority 2022, dated 2024):

Experiments:
[1] = tested on: P3 FVB mouse cochlear explants; experiment: cisplatin-induced hair cell death in P3 FVB mouse cochlear explants; assay type: cell-based
Protocol: Now referring to FIG. 1A, a representation of the chemical structure of Oseltamivir phosphate is shown. […] The explants were treated for 24 hours. […] Percent protection for compound at the tested dosages were then plotted to show dose response curves, and IC50 were calculated.
Experimental procedures for the images shown in FIG. 1C are as follows: Mice were approved by the Institutional Animal Care and Use Committee (IACUC) at the Creighton University. Inner ears were collected from the post-natal day 3 (P3) FVB mice and transferred onto a filter (Millicell, PICM03050; Millipore) soaked in culturing medium. The filter was placed in 6-well culture plates with 1.2 mL medium outside the filter. […] Cells may be maintained in culture with the aid of Matrigel as previously described in Kelley and Driver, Curr. Protoc. Neurosci.

[2] = tested on: inner ear cell line HEI-OC1; experiment: high-throughput screen of FDA-approved drugs for cisplatin-induced cell-death protection; assay type: cell-based; details: 1,300 FDA-approved drugs screened
Description: Oseltamivir is an oral widely used anti-viral drug. Significant protection by Oseltamivir against hearing loss is shown herein in doses equivalent to those approved for human use.

adult P42 FVB mice [3] = experiment: noise-induced hearing loss in adult mice, Oseltamivir treatment 24 hours after noise exposure; assay type: in vivo, mouse
Description: The experimental procedures for the data shown in FIGS. 2A-B are as follows: Animals were anesthetized with avertin. Subcutaneous needle electrodes were inserted behind the pinna (inverting), vertex of the skull (non-inverting) and base of the tail (ground). Tone bursts of 5 ms duration with 0.5 ms cosine-squared envelopes delivered at a rate of 21 stimuli per second with alternating polarity were generated using BioSigRZ software and RZ6 multi I/O processor system (Tucker-Davis Technologies, FL). Stimuli were presented as open field via a speaker (MF1: TDT, FL) placed 10 cm in front of the pinna of the animal. Evoked responses were amplified (20×), bandpass filtered (300-3,000 Hz) and average of 512 responses of 10 ms duration was recorded. Stimulus intensity was decreased in 5 dB increments, starting from 100 dB SPL to 0 dB SPL. Thresholds at 4, 5.6, 8, 16, 22.6, 32, 45.2, and 64 kHz were identified by visual inspection from stacked waveforms as the lowest level at which reproducible response could be identified. Before the start of every session, stimulus presenting speaker (MF1) was calibrated with a ¼″ microphone (PCB-378C10; PCB Piezotronics, NY) that was also placed 10 cm in front of the speaker. Similar experiments have been previously described in Rai V. et al., Sci Rep. 2020 Sep. 16; 10(1):15167.
Now referring to FIG. 3A, adult P42 FVB mice began treatment with Oseltamivir administered oral gavage at 100 mg/kg body weight twice daily for three days beginning 24 hours following noise exposure of 100 dB, 8-16 kHz octave band, for two hours. Now referring to FIG. 3B, auditory brainstem response (ABR) were recorded 14 days after noise exposure of 100 dB, 8-16 kHz octave band, for two hours. […] Control is shown as carrier. Statistical analysis was done with repeated measures ANOVA between groups. Mean±SEM, P=**<0.01, ***<0.001, compared to noise alone by two-way ANOVA with Bonferroni post-hoc test.
Now referring to […], amplitudes of auditory Brainstem Response wave 1 from auditory brainstem response recording of FIG. 3A. The auditory Brainstem Response wave-1 amplitude represents the summed activity of the cochlear nerve. Mean wave-1 amplitudes was measured in the control and Oseltamivir-treated mice before and after noise exposure. Amplitudes from the 90 dB SPL stimuli were compared between groups using a two-factor ANOVA (group× frequency), and difference was detected between the noise alone group to Oseltamivir plus noise. at 14 days post-noise exposure.
Now referring to FIG. 3D, Distortion Product Otoacoustic Emissions (DPOAE) threshold shifts were measured in adult FVB mice 14 days after noise exposure of 100 dB, 8-16 kHz octave band, for two hours. DPOAE audiograms provide a direct indicator of cochlear sensitivity at the level of the OHC. […] Control is shown as carrier. Statistical analysis was done with repeated measures ANOVA between groups. Mean±SEM, P=**<0.01, ***<0.001, compared to noise alone by two-way ANOVA with Bonferroni post-hoc test.
Now referring to FIG. 3F, Oseltamivir administered post-noise exposure is shown to increase number of CtBP2 puncta. Number of CtBP2 puncta per IHC at the 16 kHz cochlear region were counted, data shown as mean±SEM, P=**<0.01, ***<0.001 by one-way ANOVA with Bonferroni post-hoc test, n=6-7 cochleae. An average of 4 CtBP2 puncta per IHC are restored compared to group exposed to noise without Oseltamivir treatment.
Experimental procedure for distortion product otoacoustic emissions (DPOAE) measurements, primary tones were set to generate 2f1-f2 distortion products at frequencies between 1 and 50 kHz, DPOAEs were measured for levels of f1 ranging from 10 to 80 dB SPL, with the levels of the f2 tone set 10 dB below that of the f1 tone. Similar experiments are described in Lukashkina A. V. et al., Scientific reports, July 12; 7(1), 5185. (2017). Similar Ctpb2/MyosinVI experiments are described in Liu Z et al., PLoS One. Feb. 20, 2014; 9(2):e89377 (2014).

adult P42 FVB mice [4] = experiment: noise-induced hearing loss in adult mice, Oseltamivir pre-treatment before noise exposure; assay type: in vivo, mouse
Protocol: Now referring to FIG. 2A, adult P42 FVB mice began treatment with Oseltamivir administered oral gavage at 100 mg/kg body weight twice daily for three days once 45 minutes before exposure and then for two days after noise exposure. Now referring to FIG. 2B, auditory brainstem response (ABR) were recorded 14 days after noise exposure of 100 dB, 8-16 kHz octave band, for two hours. […] Control is shown as carrier. Statistical analysis was done with repeated measures ANOVA between groups. Mean±SEM, P=**<0.01, ***<0.001, compared to noise alone by two-way ANOVA with Bonferroni post-hoc test.
The experimental procedures for the data shown in FIGS. 2A-B are as follows: Animals were anesthetized with avertin. Subcutaneous needle electrodes were inserted behind the pinna (inverting), vertex of the skull (non-inverting) and base of the tail (ground). Tone bursts of 5 ms duration with 0.5 ms cosine-squared envelopes delivered at a rate of 21 stimuli per second with alternating polarity were generated using BioSigRZ software and RZ6 multi I/O processor system (Tucker-Davis Technologies, FL). Stimuli were presented as open field via a speaker (MF1: TDT, FL) placed 10 cm in front of the pinna of the animal. Evoked responses were amplified (20×), bandpass filtered (300-3,000 Hz) and average of 512 responses of 10 ms duration was recorded. […]

[5] = tested on: adult 12 weeks old CBA/CaJ mice; experiment: cisplatin-induced hearing loss in adult mice, multi-dose cisplatin regimen; assay type: in vivo, mouse
Protocol: Now referring to FIG. 4B, mice exposed to multi-dose cisplatin treatments show reduced reduction in wave 1 amplitude 16 kHz recording form 30-90 dB SPL, and Oseltamivir treatment at the dose of 50 mg/kg increased the 16-kHz wave-1 amplitude at 90 SPL.
Now referring to FIG. 4C, Oseltamivir (10 mg/kg and 50 mg/kg doses) increased the percent of total mice surviving 40 days after beginning of cisplatin exposure. Auditory Brainstem Response threshold shifts recorded as previously described. Similar wave-1 amplitude recordings have been described Hazlitt J et al., Med. Chem. 61, 7700-7709 (2018); Teitz et al., J. Exp. Med. 215, 1187-1203 (2018).
Now referring to FIG. 5A, confocal images of myosin-VI stained basal, middle, apical turn cochlear regions show outer hair cells of mice exposed to treatment of 50 mg/kg Oseltamivir alone or exposed to cisplatin with or without treatment of 10 or 50 mg/kg Oseltamivir. Now referring to FIG. 5B, count of outer hair cells per 160 μm for cochlear regions. Mean±SEM, P=*<0.05, **<0.01, compared to noise alone by two-way ANOVA with Bonferroni post-hoc test. N=5 cochleae counted per bar. Similar Myosin VI experiments are described in Liu Z et al., PLoS One. Feb. 20, 2014; 9(2):e89377 (2014).

With `CCOC(=O)C1=C[C@@H](OC(CC)CC)[C@H](NC(C)=O)[C@@H](N)C1` [Oseltamivir, oseltamivir phosphate] the “protection against cisplatin induced hair cell loss, phalloidin-stained middle turn images” value ([1]; 3 μM Oseltamivir and 150 μM Cisplatin) was “shows protection”, the IC50 ([1]; Mus musculus, Oseltamivir added 1 h before cisplatin (150 μM), 24 h, read-out: IC50 (percent protection from cisplatin-induced hair cell death)) was 450 nM and the LD50 ([1]; Oseltamivir alone, cochlear explants, 24 h) was over 100 µM. The “hit in screen for cisplatin-induced cell-death protection” value [2] was “one of the best hits”, the “ABR threshold shift vs noise-exposed control” value (adult P42 FVB mice [3]; 100 mg/kg oral twice daily, three days, beginning 24 hours after noise, 14 days after noise) was “Significant protection against hearing loss” and the “loss of CtBP2-puncta in inner hair cells vs noise alone” value (adult P42 FVB mice [3]; 16 kHz cochlear region) was “partially restores”. The “CtBP2 puncta per IHC restored vs noise without Oseltamivir” value (adult P42 FVB mice [3]; 16 kHz cochlear region, post-noise administration, average) was 4, the “ABR wave-1 amplitude vs noise exposure only group” value (adult P42 FVB mice [3]; 16 kHz, 90 dB SPL, 14 days post-noise exposure) was “higher amplitudes” and the “DPOAE threshold shift vs noise-exposed control” value (adult P42 FVB mice [3]; 14 days after noise exposure of 100 dB, 8-16 kHz, two hours) was “Significant protection against hearing loss”. For the same compound, the “protection, auditory Brainstem Response and DPOAE measurements” value (adult P42 FVB mice [3]; oral, 45 minutes before noise exposure and 24 hours after noise exposure, three consecutive days) was 20-28 dB, the “protection against noise-induced hearing loss (ABR threshold shift)” value (adult P42 FVB mice [3]; treatment 24 hours after noise exposure, 100, 50 and 10 mg/kg, 8, 16, 32 kHz) was “protects” and the “protection, auditory brainstem response measurements” value (adult P42 FVB mice [4]; 100 mg/kg oral gavage twice daily for three days, first dose 45 minutes before noise (100 dB, 8-16 kHz, two hours), ABR 14 days after noise) was 24-28 dB. The “ABR threshold shift vs noise-exposed control” value (adult P42 FVB mice [4]; 100 mg/kg oral twice daily, three days, starting 45 minutes before noise, 14 days after noise) was “Significant protection against hearing loss”, the “16-kHz wave-1 amplitude” value ([5]; 50 mg/kg Oseltamivir, 90 SPL, multi-dose cisplatin) was “increased” and the “auditory brainstem response threshold shift vs cisplatin without treatment” value ([5]; 8, 16, and 32 kHz, 10 and 50 mg/kg Oseltamivir oral twice-daily, cisplatin 3 mg/kg IP, 3 cycles) was “lower”. The “percent of total mice surviving” value ([5]; 40 days after beginning of cisplatin exposure, 10 mg/kg and 50 mg/kg) was “increased” and the “outer hair cells, Myosin VI stained basal, middle, apical cochlear regions” value ([5]; multi-dose cisplatin regimen, 10 or 50 mg/kg Oseltamivir) was “preserved outer hair cells in all regions”.
